From patent US8637684B2, “Tautomycetin and tautomycetin analog biosynthesis” (Wisconsin Alumni Research Foundation, priority 2010, dated 2014)

How the values were obtained:
SHP2 = target: T1, SHP2 (Homo sapiens, UniProt Q06124); test: PTP activity assay with pNPP as substrate: SHP2; type: biochemical
T1 construct: The expression and purification of the SHP2 catalytic domain (residues 262-528) were described previously; made in house
T1 sequence (Q06124 262-528): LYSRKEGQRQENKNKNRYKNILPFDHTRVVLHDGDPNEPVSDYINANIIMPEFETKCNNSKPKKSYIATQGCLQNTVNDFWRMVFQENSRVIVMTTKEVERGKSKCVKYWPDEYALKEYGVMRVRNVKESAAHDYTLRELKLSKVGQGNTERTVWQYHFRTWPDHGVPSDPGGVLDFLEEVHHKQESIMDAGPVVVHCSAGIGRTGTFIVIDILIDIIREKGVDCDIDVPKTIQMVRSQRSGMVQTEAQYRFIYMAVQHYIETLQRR
Procedure: (§1) The PTP activity was assayed using pNPP as a substrate at 25° C. in 50 mM 3,3-dimethylglutarate buffer, pH 7.0, containing 1 mM EDTA with an ionic strength of 0.15 M adjusted by NaCl. TTM, TTN and the engineered analogs were analyzed for inhibition of a panel of PTPs at 10 μM compound concentration. For each enzyme screened, test compounds were diluted to 20 μM in 100 μL and combined with 50 μL pNPP at a concentration of 4×Km. The reaction was initiated by the addition of 50 μL of 4× concentrated enzyme and pNPP was allowed to convert to the product p-nitrophenol. The reaction was quenched by the addition of 50 μL of 5N NaOH. Nonenzymatic hydrolysis of pNPP was corrected by measuring the control without the addition of enzyme. Production of p-nitrophenol was monitored by a Spectra MAX385 microplate spectrophotometer (Molecular Devices) at 405 nm using a molar extinction coefficient of 18,000 M^−1 cm^−1. IC50 values were calculated by fitting the absorbance at 405 nm versus inhibitor concentration to the following equation: AI/A0=IC50/(IC50+[I]) where AI is the absorbance at 405 nm of the sample in the presence of inhibitor; Ao is the absorbance at 405 nm in the absence of inhibitor; and [I] is the concentration of the inhibitor.
The effect of the compounds on PTP-catalyzed hydrolysis of p-nitrophenyl phosphate (pNPP) was assessed at pH 7 and 25° C. Members of the PTP superfamily that were included in the screen included the cytosolic PTPs, PTP1B, SHP1, SHP2, Lyp, HePTP, Meg2, and FAP1, the receptor-like PTPs, CD45, LAR, and PTPα, the dual specificity phosphatases VHR, VHX, and Cdc14, and the low molecular weight PTP.
Therefore, all of the IC50 values reported in this study directly reflect the true affinity of the compound for the enzymes tested.

SHP1 = SHP1 (Homo sapiens, UniProt P29350); test: PTP activity assay with pNPP as substrate: SHP1; type: biochemical; conditions: pNPP as substrate at Km, pH 7.0, 25° C., I = 0.15 M
Procedure: as §1

PTP1B = target: T2, PTP1B (Homo sapiens, UniProt P18031); test: PTP activity assay with pNPP as substrate: PTP1B; type: biochemical; conditions: pNPP as substrate at Km, pH 7.0, 25° C., I = 0.15 M
T2 sequence (P18031 1-435): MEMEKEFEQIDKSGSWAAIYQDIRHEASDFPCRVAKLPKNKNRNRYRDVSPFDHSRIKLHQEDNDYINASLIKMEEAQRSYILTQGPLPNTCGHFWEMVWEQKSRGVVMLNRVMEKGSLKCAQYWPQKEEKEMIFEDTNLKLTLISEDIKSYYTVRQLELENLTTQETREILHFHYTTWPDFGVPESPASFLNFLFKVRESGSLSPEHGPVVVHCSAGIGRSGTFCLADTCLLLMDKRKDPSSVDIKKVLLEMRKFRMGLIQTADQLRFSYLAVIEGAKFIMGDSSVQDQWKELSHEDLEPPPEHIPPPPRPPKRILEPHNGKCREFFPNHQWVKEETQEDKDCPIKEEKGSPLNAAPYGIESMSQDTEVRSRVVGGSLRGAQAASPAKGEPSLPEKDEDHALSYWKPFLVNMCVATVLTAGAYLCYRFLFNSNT
Procedure: as §1

Lyp = target: T3, Lyp (Homo sapiens, UniProt Q9Y2R2); test: PTP activity assay with pNPP as substrate: Lyp; type: biochemical; conditions: pNPP as substrate at Km, pH 7.0, 25° C., I = 0.15 M
T3 sequence (Q9Y2R2 1-807): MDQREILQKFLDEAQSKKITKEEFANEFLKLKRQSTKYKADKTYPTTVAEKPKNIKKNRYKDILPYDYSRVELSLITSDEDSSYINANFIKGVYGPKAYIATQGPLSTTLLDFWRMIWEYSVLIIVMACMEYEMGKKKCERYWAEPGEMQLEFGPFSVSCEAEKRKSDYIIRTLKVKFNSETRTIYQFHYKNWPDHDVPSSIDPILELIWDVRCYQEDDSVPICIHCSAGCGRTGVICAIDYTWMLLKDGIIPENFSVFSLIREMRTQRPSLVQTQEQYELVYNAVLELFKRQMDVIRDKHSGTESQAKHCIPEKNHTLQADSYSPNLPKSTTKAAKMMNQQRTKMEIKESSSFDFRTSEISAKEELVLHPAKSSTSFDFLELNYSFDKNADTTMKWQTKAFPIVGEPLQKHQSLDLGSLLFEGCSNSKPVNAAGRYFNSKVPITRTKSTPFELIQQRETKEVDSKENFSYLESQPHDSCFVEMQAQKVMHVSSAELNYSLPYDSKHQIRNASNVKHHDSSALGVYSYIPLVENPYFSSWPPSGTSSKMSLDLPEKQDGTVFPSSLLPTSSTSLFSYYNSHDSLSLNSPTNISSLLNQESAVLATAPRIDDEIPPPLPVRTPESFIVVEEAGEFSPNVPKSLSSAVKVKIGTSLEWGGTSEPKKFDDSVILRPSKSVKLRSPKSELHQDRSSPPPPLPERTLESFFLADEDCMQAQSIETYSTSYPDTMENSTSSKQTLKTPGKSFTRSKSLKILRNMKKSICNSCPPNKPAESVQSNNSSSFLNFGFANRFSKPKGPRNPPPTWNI
Procedure: as §1

PTPα = PTPα (Homo sapiens, UniProt P18433); test: PTP activity assay with pNPP as substrate: PTPα; type: biochemical; conditions: pNPP as substrate at Km, pH 7.0, 25° C., I = 0.15 M
Procedure: as §1

VHR = VHR (Homo sapiens, UniProt P51452); test: PTP activity assay with pNPP as substrate: VHR; type: biochemical; conditions: pNPP as substrate at Km, pH 7.0, 25° C., I = 0.15 M
Procedure: as §1

PP1 = conditions: cited from earlier work

VHR, sequence (P51452 whole entry, species assumed): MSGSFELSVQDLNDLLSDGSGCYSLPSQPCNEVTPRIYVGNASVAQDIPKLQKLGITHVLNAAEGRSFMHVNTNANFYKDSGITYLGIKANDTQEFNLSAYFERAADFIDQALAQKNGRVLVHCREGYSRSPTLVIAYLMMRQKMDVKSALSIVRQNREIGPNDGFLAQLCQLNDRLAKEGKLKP
PTPα, sequence (P18433 20-802): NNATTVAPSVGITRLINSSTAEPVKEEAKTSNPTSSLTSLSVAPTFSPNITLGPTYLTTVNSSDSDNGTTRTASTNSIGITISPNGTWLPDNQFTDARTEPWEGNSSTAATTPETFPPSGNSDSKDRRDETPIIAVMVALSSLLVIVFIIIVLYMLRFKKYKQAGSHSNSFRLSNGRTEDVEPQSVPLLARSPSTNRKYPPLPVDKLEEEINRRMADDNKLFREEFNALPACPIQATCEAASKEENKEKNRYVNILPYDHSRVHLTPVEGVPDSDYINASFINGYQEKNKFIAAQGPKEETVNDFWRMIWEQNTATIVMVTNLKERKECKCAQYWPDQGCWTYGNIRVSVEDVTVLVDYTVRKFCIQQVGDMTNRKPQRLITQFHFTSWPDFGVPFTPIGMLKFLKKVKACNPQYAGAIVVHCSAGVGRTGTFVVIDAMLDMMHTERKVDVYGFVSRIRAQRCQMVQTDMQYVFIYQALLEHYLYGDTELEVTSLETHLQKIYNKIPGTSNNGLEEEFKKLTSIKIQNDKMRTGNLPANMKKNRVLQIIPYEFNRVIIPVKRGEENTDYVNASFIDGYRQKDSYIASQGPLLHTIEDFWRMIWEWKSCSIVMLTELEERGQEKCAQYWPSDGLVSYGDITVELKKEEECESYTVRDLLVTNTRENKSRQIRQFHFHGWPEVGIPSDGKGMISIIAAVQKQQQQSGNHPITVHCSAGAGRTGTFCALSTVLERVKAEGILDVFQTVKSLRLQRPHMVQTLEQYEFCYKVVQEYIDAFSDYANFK
SHP1, sequence (P29350 whole entry): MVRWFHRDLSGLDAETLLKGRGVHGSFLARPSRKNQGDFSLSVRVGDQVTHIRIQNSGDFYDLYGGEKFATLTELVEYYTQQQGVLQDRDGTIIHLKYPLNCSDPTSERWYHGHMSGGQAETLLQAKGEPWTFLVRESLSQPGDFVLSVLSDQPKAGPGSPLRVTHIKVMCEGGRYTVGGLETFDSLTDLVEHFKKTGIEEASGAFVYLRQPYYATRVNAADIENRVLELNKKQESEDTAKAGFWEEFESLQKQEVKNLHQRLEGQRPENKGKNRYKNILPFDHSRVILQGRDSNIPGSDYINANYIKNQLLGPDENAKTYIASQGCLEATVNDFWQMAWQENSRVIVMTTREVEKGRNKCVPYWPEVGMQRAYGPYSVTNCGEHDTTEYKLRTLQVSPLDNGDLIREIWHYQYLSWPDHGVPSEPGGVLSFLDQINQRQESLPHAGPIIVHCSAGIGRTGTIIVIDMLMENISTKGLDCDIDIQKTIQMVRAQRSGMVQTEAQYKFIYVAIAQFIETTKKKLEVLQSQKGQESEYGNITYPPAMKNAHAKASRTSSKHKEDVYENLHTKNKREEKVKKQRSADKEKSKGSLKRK

## tautomycetin [TTN]
SHP2; from IC50 values
  preference for SHP2 over all PTPs examined: ≥ 5 fold
SHP2; pNPP as substrate at Km, pH 7.0, 25° C., I = 0.15 M
  IC50: 2900 nM
SHP1
  IC50: 14.6 µM
PTP1B
  IC50: 40 µM
Lyp
  IC50: 20 µM
PTPα
  IC50: > 50 µM
VHR
  IC50: > 50 µM
PP1; literature (Mitsuhashi et al., 2001)
  preferential inhibition of PP1 relative to PP2A: about 40 fold
PP1; literature values
  IC50: 1.6 nM
